Results on four molecules are retold here after US20240100193A1, “Self-complementary AAV vectors carrying dominant negative RhoA and methods of use to treat ocular diseases” (iView Therapeutics, Inc., priority 2022, published 2024).

This assay concerns ROCK. Put plainly: ROCK Activity Assay Kit on HTM cell lysates treated with ROCK activator or inhibitor. The note with it: for relative ROCK activity normalized to the no drug treated cell lysate: HTM cell lysate. The assay is classed as biochemical, human. The procedure:
The ROCK Activity Assay Kit is an enzyme immunoassay developed for detection of the specific phosphorylation of MYPT1 at Thr696 by ROCK. A strip-well microtiter plate is precoated with a recombinant MYPT1. After incubating the substrate wells with ROCK samples, the phosphorylated MYPT1 is detected by an anti-phospho-MYPT1 (Thr696) antibody.
Human trabecular meshwork cells were seeded into 12-well plates at the density of 500,000 cells per well. 48 hours after seeding, cells were harvested with cell lysis buffer. Cell lysates were treated with ROCK activator or ROCK inhibitor before incubating with precoated strip-wells. The ROCK activity was then measured with the protocol of the kit. Three chemicals were used to activate ROCK: S1P (Sphingosine-1 phosphate at 1 μM), LPA (Oleoyl L-lysophosphatidic acid at 10 μM) and DMOG (Dimethyloxalylglycine at 0.5 mM). […] Data was presented as relative ROCK activity normalized to the no drug treated cell lysate.

Regarding `C[C@@H](N)[C@H]1CC[C@H](C(=O)Nc2ccncc2)CC1` [Y-27632], the “relative ROCK activity normalized to the no drug treated cell lysate” value (Y-27632 at 50 μM) is “decreased”.

On to Oleoyl L-lysophosphatidic acid [LPA], for which the “rank among the chemical ROCK activators” value (LPA 10 μM compared with S1P 1 μM and DMOG 0.5 mM) was “most potent activator”. The “relative ROCK activity normalized to the no drug treated cell lysate” value (LPA at 10 μM) was “increased”.

Regarding `CCCCCCCCCCCCC/C=C/[C@@H](O)[C@@H](N)COP(=O)(O)O` [S1P, Sphingosine-1 phosphate], the “relative ROCK activity normalized to the no drug treated cell lysate” value (S1P at 1 μM) is on record as “increased”.

On to `COC(=O)CNC(=O)C(=O)OC` [DMOG, Dimethyloxalylglycine], for which the “relative ROCK activity normalized to the no drug treated cell lysate” value (DMOG at 0.5 mM) is “increased”.
